Data published in patent publication US12187709B2 (Genentech, Inc., priority 2021, dated 2025).

What was measured:
Cbl-b = Cbl-b (Homo sapiens (Human), UniProt Q13191); test: Cbl-b LCK Ub TR-FRET assay (Cbl-b Lck HTRF); assay type: biochemical; settings: for IC50: Cbl-b LCK Ub TR-FRET; for fold-selectivity (Cbl-b over C-cbl) / (fold-selectivity) Cbl-b and C-Cbl Selectivity: ratio C-cbl Lck HTRF IC50 / Cbl-b Lck HTRF IC50
In short: (§1)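 After the ubiquitination reaction, detection mixture was added and plates incubated 20 min at room temperature before reading. IC50 values were calculated with wells lacking LCK as the low control and DMSO as the high control.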

c-Cbl (residues 47-435) = c-Cbl (residues 47-435) (Homo sapiens (Human), UniProt P22681); test: c-Cbl SPR assay; assay type: binding; settings: 20° C.
In short: (§2)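 Captured protein (1300-1500 RU for both isoforms) was probed in multi-cycle kinetics with 6 concentrations in 2-fold dilution, 60 s contact, 40 μl/min, dissociation 120-1200 s, double-referenced. Kinetic and affinity parameters came from a 1:1 binding fit. For slow off-rates, kd was set independently by a chaser-based method.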

[1] = target: Human Cbl-b (residues 40-426) (Homo sapiens (Human), UniProt Q13191); test: Cbl-b SPR assay; assay type: binding; settings: for Fold of selectivity: C-cbl SPR Kd vs Cbl-b SPR Kd; for Kd: SPR, 20° C.
In short: as §2

c-Cbl = c-Cbl (Homo sapiens (Human), UniProt P22681); test: C-Cbl LCK Ub TR-FRET assay (C-cbl Lck HTRF); assay type: biochemical
In short: as §1

Chain of c-Cbl (P22681 47-435): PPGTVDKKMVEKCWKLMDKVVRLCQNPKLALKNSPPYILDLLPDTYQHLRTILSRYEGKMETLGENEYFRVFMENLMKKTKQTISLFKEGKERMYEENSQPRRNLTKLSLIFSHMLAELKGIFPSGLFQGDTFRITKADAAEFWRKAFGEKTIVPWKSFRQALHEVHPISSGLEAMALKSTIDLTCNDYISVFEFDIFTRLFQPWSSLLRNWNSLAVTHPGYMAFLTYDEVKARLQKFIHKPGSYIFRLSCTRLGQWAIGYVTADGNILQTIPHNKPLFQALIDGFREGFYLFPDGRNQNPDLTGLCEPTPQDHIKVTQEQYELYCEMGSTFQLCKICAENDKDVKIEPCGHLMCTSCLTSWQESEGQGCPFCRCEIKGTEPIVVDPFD
Chain of c-Cbl (residues 47-435) (P22681 47-435): as above
Chain of Cbl-b (Q13191 40-426): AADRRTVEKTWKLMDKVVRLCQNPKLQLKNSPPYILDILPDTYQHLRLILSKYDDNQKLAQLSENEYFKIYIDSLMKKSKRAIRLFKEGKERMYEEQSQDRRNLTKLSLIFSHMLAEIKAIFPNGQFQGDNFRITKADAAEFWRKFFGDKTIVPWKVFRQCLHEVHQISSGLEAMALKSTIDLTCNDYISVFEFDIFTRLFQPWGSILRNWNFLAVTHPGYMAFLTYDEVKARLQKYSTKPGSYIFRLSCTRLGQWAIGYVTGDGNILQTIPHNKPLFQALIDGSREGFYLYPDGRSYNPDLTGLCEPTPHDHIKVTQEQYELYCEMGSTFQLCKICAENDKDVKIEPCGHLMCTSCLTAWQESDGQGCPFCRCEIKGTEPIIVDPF
Chain of Human Cbl-b (residues 40-426) (Q13191 40-426): as above

Row | SMILES | IC50 (Cbl-b) [nM] | fold-selectivity (Cbl-b over C-cbl) (Cbl-b) [x] | Kd (c-Cbl (residues 47-435)) [nM] | Fold of selectivity [1] [×] | Kd [1] [nM] | IC50 (c-Cbl) [nM] | IC50 (Cbl-b; Example 121) [nM] | (fold-selectivity) Cbl-b and C-Cbl Selectivity (Cbl-b) [x]
1 | Cn1cnnc1[C@@H](c1cccc(N2Cc3c(cc(CNC4(C)CCC4)cc3C(F)(F)F)C2=O)c1)C1CC(OC(F)F)C1 (single isomer, unassigned) [Compound 388] | 120 | 7.6 | 970 | 9.7 | 100 | 870 |  | 
2 | Cn1cnnc1[C@H](c1cccc(N2Cc3c(cc(CNC4(C)CCC4)cc3C(F)(F)F)C2=O)c1)C1CC(OC(F)F)C1 (single isomer, unassigned) [Compound 389] | 5.1 | 1.7 | 13 | 4.4 | 2.9 | 8.9 |  | 
3 | Cn1cnnc1[C@H](c1cccc(N2Cc3c(cc(CNC4(C)CCC4)cc3C(F)(F)F)C2=O)c1)C1CC(OC(F)F)C1 (single isomer, unassigned) [Compound 390] | 5.5 | 1.0 | 1.7 | 3.0 | 0.6 | 5.5 |  | 
4 | CC[C@@](O)(c1cccc(N2Cc3c(cc(CNC4(C)CCC4)cc3C(F)(F)F)C2=O)c1)c1nncn1C (single isomer, unassigned) [Compound 392] | 10 | 1.4 | 38 | 5.1 | 7.5 | 14 |  | 
5 | CC[C@](F)(c1cccc(N2Cc3c(cc(CNC4(C)CCC4)cc3C(F)(F)F)C2=O)c1)c1nncn1C (single isomer, unassigned) [Compound 393] | 190 | 2.4 | 540 | 3.5 | 150 | 460 |  | 
6 | CC[C@@](F)(c1cccc(N2Cc3c(cc(CNC4(C)CCC4)cc3C(F)(F)F)C2=O)c1)c1nncn1C (single isomer, unassigned) [Compound 394] | 4.6 | 0.8 | 1.4 | 2.4 | 0.65 | 3.8 |  | 
7 | Cn1cnnc1[C@@H](c1cccc(N2Cc3c(cc(CNC4(C)CCC4)cc3C(F)(F)F)C2=O)c1)[C@H]1C[C@H](OC(F)(F)F)C1 (single isomer, unassigned) [Compound 395] | 75 | 2.1 | 920 | 7.1 | 130 | 160 |  | 
8 | Cn1cnnc1[C@@H](c1cccc(N2Cc3c(cc(CNC4(C)CCC4)cc3C(F)(F)F)C2=O)c1)C1CC(OC(F)(F)F)C1 (single isomer, unassigned) [Compound 398] | 5.8 | 1.1 | 9 | 4.5 | 2 | 6.5 |  | 
9 | CC(=O)N(C)[C@H](c1cccc(N2Cc3c(cc(CNC4(C)CCC4)cc3C(F)(F)F)C2=O)c1)c1nncn1C (single isomer, unassigned) [Compound 399] | 530 | 12 | 8100 | 17 | 490 | 6000 |  | 
10 | CC(=O)N1CC([C@@H](c2cccc(N3Cc4c(cc(CNC5(C)CCC5)cc4C(F)(F)F)C3=O)c2)c2nncn2C)C1 (single isomer, unassigned) [Compound 402] | 580 | 4.3 | 2800 | 3.4 | 890 | 2500 |  | 
11 | C[C@H](NC1(C)CCC1)c1cc2c(c(C(F)F)c1)CN(c1cccc([C@@H](c3nncn3C)C3COC3)c1)C2=O (single isomer, unassigned) [Compound 407] |  |  | 4300 | 16 | 270 | 5700 | 390 | 14
12 | Cn1cnnc1[C@@H](c1cc(Cl)cc(N2Cc3c(cc(CNC4(C)CCC4)cc3C(F)(F)F)C2=O)c1)C1COC1 (single isomer, unassigned) [Compound 408] |  |  | 770 | 1.8 | 440 | 780 | 540 | 1.4
13 | Cn1cnnc1[C@H](c1cc(Cl)cc(N2Cc3c(cc(CNC4(C)CCC4)cc3C(F)(F)F)C2=O)c1)C1COC1 (single isomer, unassigned) [Compound 409] |  |  | 90 | 1.4 | 62 | 57 | 52 | 1.1
14 | C[C@@H](NC1(C)CCC1)c1cc2c(c(C(F)F)c1)CN(c1cccc([C@H](c3nncn3C)C3COC3)c1)C2=O (single isomer, unassigned) [Compound 412] |  |  | 82 | 16 | 5.2 | 59 | 14 | 4.2
15 | C[C@H](NC1(C)CCC1)c1cc2c(c(C(F)F)c1)CN(c1cccc([C@H](c3nncn3C)C3COC3)c1)C2=O (single isomer, unassigned) [Compound 413] |  |  | 1.6 | 5.3 | 0.3 | 7.1 | 4.5 | 1.6
16 | Cn1cnnc1[C@@H](c1cccc(N2Cc3c(cc(CNC4(C)CCC4)cc3C(F)(F)F)C2=O)c1)C1(O)CCC1 (single isomer, unassigned) [Compound 429] |  |  | 170 | 4.8 | 42 | 200 | 37 | 5.1
17 | Cn1cnnc1[C@@H](c1cccc(N2Cc3c(cc([C@@H](NC4(C)CCC4)C4CC4)cc3C(F)(F)F)C2=O)c1)C1COC1 (single isomer, unassigned) [Compound 430] |  |  | 74 | 14 | 5.9 | 91 | 19 | 4.7
18 | Cn1cnnc1[C@@H](c1cccc(N2Cc3c(cc([C@H](NC4(C)CCC4)C4CC4)cc3C(F)(F)F)C2=O)c1)C1COC1 (single isomer, unassigned) [Compound 431] |  |  | 1.3 | 3.1 | 0.4 | 5.8 | 5.3 | 1.1
19 | Cn1cnnc1[C@@H](c1cccc(N2Cc3c(cc([C@H](NC4(C)CCC4)C4CCC4)cc3C(F)(F)F)C2=O)c1)C1COC1 (single isomer, unassigned) [Compound 432] |  |  | 1.5 | 3.6 | 0.4 | 7.1 | 5.5 | 1.3
20 | Cn1cnnc1[C@@H](c1cccc(N2Cc3c(cc([C@@H](NC4(C)CCC4)C4CCC4)cc3C(F)(F)F)C2=O)c1)C1COC1 (single isomer, unassigned) [Compound 433] |  |  | 86 | 10 | 8.5 | 78 | 17 | 4.7
21 | Cn1cnnc1[C@H](c1cccc(N2Cc3c(cc([C@H](NC4(C)CCC4)C4CCC4)cc3C(F)(F)F)C2=O)c1)C1COC1 (single isomer, unassigned) [Compound 434] |  |  | 2500 | 13 | 190 | 510 | 160 | 3.1
